Reference: patent publication US6228872A, “Neurotrophic diamide and carbamate agents” (Bristol-Myers Squibb Company, priority 1999, dated 2001)
Where two headings read alike, the source gives them in different places.

Target: FKBP12 (Homo sapiens, UniProt P62942)
Assay: FKBP12 Rotamase Inhibition Assay
Format: biochemical
Settings: for inhibition at 10 µM: read-out: % inhib. at 10 μM; for Ki: apparent Ki, 4° C., substrate succinyl-Ala-Leu-Pro-Phe-p-nitroanilide
Experimental: FKBP12 Rotamase Inhibition Assay
The rotamase activity of FKBP-12 was measured by an adaptation of the assay described by Kofron et al. (Biochemistry, 30, pp. 6127-6134 (1991)). The assay was carried out at 4° C. with 1 mg chymotrypsin/mL of assay with succinyl-Ala-Leu-Pro-Phe-p-nitroanilide as the substrate. Chymotrypsin rapidly hydrolyzes the peptide bond on the C-terminal side of the Phe of the trans form of the peptide and releases the chromogenic p-nitroaniline. The rate of the reaction is controlled by the rate of conversion of the cis form of the peptide to the trans-form, the reaction catalyzed by FKBP12. The apparent Ki values for inhibition of the rotamase activity were determined by measuring decreases in the first order rate constant of the reaction catalyzed by FKBP12 as a function of the concentrations of the compounds described herein. Ki is the concentration of the compound that causes 50 percent inhibition of rotamase activity which is indicative of neurite outgrowth activity.

[1] = Table 2, 1 μM (values marked *), read-out: % inhib. at 1 μM*
[2] = Table 3, 1 μM, read-out: % rotamase inhib. at 1 μM

Sequence of FKBP12 (P62942 whole entry, species assumed): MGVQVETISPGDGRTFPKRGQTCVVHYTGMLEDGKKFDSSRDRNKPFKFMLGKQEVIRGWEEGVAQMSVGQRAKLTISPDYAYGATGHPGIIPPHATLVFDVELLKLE

COc1cc(C(=O)C(=O)N2CCC[C@H]2COC(=O)N(CCCc2ccccc2)CCCc2cccnc2)cc(OC)c1OC [Example 7, N-(3,4,5-Trimethoxyphenyl)oxalyl-L-pyrrolidinylmethyl-[N',N'-3-(3-pyridyl)propyl-3-phenylpropylamino]carbamate]
inhibition at 10 µM (Table 2): 100% | Ki (Table 2): 0.447 µM

COc1cc(C(F)(F)C(=O)N2CCC[C@H]2COC(=O)N(CCCCc2cccnc2)Cc2ccccc2)cc(OC)c1OC [Example 31, N-(3,4,5-Trimethoxyphenyl)-difluoroacetyl-L-pyrrolidinylmethyl-[N',N'-4-(3-pyridyl)butyl-benzylamino]carbamate]
inhibition at 1 µM [1]: 63% | Ki (Table 2): 0.686 µM

CC(C)(C)C(=O)C(=O)N1CCC[C@H]1COC(=O)NCCc1ccccc1 [Example 5, N-Trimethylpyruvyl-L-pyrrolidinylmethyl-[N'-2-phenylethylamino]carbamate]
inhibition at 10 µM (Table 1): 0%

COc1cc(C(F)(F)C(=O)N2CCCCC2COC(=O)N(CCCCc2ccccc2)CCCc2cccnc2)cc(OC)c1OC (racemic) [Example 43]
inhibition at 1 µM [1]: 0%

COc1cc(C(=O)C(=O)N2CCC[C@H]2COC(=O)N(CCCCc2cccnc2)CCCc2ccccc2)cc(OC)c1OC [Example 14, N-(3,4,5-Trimetboxyphenyl)oxalyl-L-pyrrolidinylmethyl-[N',N'-4-(3-pyridyl)butyl-3-phenylpropylamino]carbamate]
inhibition at 1 µM [1]: 54%

COc1cc(C(F)(F)C(=O)N2CCC[C@H]2COC(=O)N(CCCCc2cccnc2)CCc2ccccc2)cc(OC)c1OC [Example 30, N-(3,4,5-Trimethoxyphenyl)-difluoroacetyl-L-pyrrolidinylmethyl-[N',N'-4-(3-pyridyl)butyl-2-phenylethylamino]carbamate]
inhibition at 10 µM (Table 2): 97%

COc1cc(C(F)(F)C(=O)N2CCCCC2COC(=O)N(CCCc2cccnc2)Cc2ccccc2)cc(OC)c1OC (racemic) [Example 41, N-(3,4,5-Trimethoxyphenyl)-difluoroacetyl-(±)-piperidinylmethyl-[N',N'-3-(3-pyridyl)propyl-benzylamino]carbamate]
inhibition at 1 µM [1]: 11%

COc1ccc(CCCCN(CCCc2cccnc2)C(=O)OC[C@@H]2CCCN2C(=O)C(F)(F)c2cc(OC)c(OC)c(OC)c2)cc1OC [Example 40, N-(3,4,5-Trimethoxyphenyl)-difluoroacetyl-L-pyrrolidinylmethyl-[N',N'-3-(3-pyridyl)propyl-4-(3,4-dimethoxyphenyl)butylamino]carbamate]
inhibition at 1 µM [2]: 98%

COc1cc(C(F)(F)C(=O)N2CCC[C@H]2COC(=O)N(CCCc2cccnc2)CCc2ccccc2)cc(OC)c1OC [Example 27, N-(3,4,5-Trimethoxyphenyl)-difluoroacetyl-L-pyrrolidinylmethyl-[N',N'-3-(3-pyridyl)propyl-2-phenylethylamino]carbamate]
inhibition at 10 µM (Table 2): 97% | Ki (Table 2): 0.234 µM

COc1cc(C(=O)C(=O)N2CCC[C@H]2COC(=O)N(CCCCc2cccnc2)Cc2ccccc2)cc(OC)c1OC [Example 16, N-(3,4,5-Trimethoxyphenyl)oxalyl-L-pyrrolidinylmethyl-[N',N'-4-(^3-pyridyl)butyl-benzylamino]carbamate]
inhibition at 1 µM [1]: 18%

COc1cc(C(=O)C(=O)N2CCCCC2COC(=O)N(CCCc2ccccc2)CCCc2cccnc2)cc(OC)c1OC (racemic) [Example 19, N-(3,4,5-Trimethoxyphenyl)oxalyl-(±)-piperidinylmethyl-[N',N'-3-(3-pyridyl)-propyl-3-phenylpropylamino]carbamate]
inhibition at 10 µM (Table 2): 11%

COc1cc(CCCN(CCCc2cccnc2)C(=O)OC[C@@H]2CCCN2C(=O)C(=O)c2cc(OC)c(OC)c(OC)c2)cc(OC)c1OC [Example 18, N-(3,4,5-Trimethoxyphenyl)oxalyl-L-pyrrolidinylmethyl-[N',N'-3-(3-pyridyl)propyl-3-(3,4,5-trimethoxyphenyl)propylamino]carbamate]
inhibition at 1 µM [2]: 68%

COc1cc(C(F)(F)C(=O)N2CCC[C@H]2COC(=O)N(CCCCc2ccccc2)CCCc2cccnc2)cc(OC)c1OC [Example 26, N-(3,4,5-Trimethoxyphenyl)-difluoroacetyl-L-pyrrolidinylmethyl-[N',N'-3-(3-pyridyl)propyl-4-phenylbutylamino]carbamate]
inhibition at 10 µM (Table 2): 99% | Ki (Table 2): 0.158 µM

COc1cc(C(=O)C(=O)N2CCC[C@H]2COC(=O)NCCc2ccccc2)cc(OC)c1OC [Example 9, N-(3,4,5-Trimethoxyphenyl)oxalyl-L-pyrrolidinylmethyl-[N'-2-phenylethylamino]carbamate]
inhibition at 10 µM (Table 1): 11%

COc1ccc(CCCN(CCCc2cccnc2)C(=O)OC[C@@H]2CCCN2C(=O)C(F)(F)c2cc(OC)c(OC)c(OC)c2)cc1 [Example 38, N-(3,4,5-Trimethoxyphenyl)-difluoroacetyl-L-pyrrolidinylmethyl-[N',N'-3-(3-pyridyl)propyl-3-(4-methoxyphenyl)propylamino]carbamate]
inhibition at 1 µM [2]: 95%

CC(C)(C)C(=O)C(=O)N1CCC[C@H]1COC(=O)N(CCCc1ccccc1)CCCc1cccnc1 [Example 1, N-Trimethylpyruvyl-L-pyrrolidinylmethyl-[N',N'-3-(3-pyridyl)propyl-3-phenylpropylamino]carbamate]
inhibition at 10 µM (Table 1): 93%

COc1cc(C(=O)C(=O)N2CCC[C@H]2COC(=O)N(CCCc2cccnc2)Cc2ccccc2)cc(OC)c1OC [Example 13, N-(3,4,5-Trimethoxyphenyl)oxalyl-L-pyrrolidinylmethyl-[N',N'-3-(3-pyridyl)propyl-benzylamino]carbamate]
inhibition at 10 µM (Table 2): 79%

COc1cc(C(F)(F)C(=O)N2CCC[C@H]2COC(=O)N(CCc2ccccc2)CCc2c[nH]c3ccccc23)cc(OC)c1OC [Example 25, N-(3,4,5-Trimethoxyphenyl)-difluoroacetyl-L-pyrrolidinylmethyi-[N',N'-2-(3-indolyl)ethyl-2-phenylethylamino]carbamate]
inhibition at 1 µM (Table 1, 1 μM (values marked *), read-out: % inhib. at 1 μM*): 11%

COc1cc(C(F)(F)C(=O)N2CCC[C@H]2CCC(=O)N(CCCc2ccccc2)CCCc2cccnc2)cc(OC)c1OC [Example 45, N,N-(3-Phenylpropyl)-3-(3-pyridyl)propyl-2-[(S)-N'-(3,4,5-Trimethoxyphenyl)-difluoroacetyl-2-pyrrolidinyl]propionamide]
inhibition at 1 µM (Table 4, 1 μM, read-out: % rotamase inhib. at 1 μM): 42%

COc1cc(C(F)(F)C(=O)N2CCC[C@H]2COC(=O)N(CCCc2ccccc2)CCCc2cccnc2)cc(OC)c1OC [Example 23, N-(3,4,5-Trimethoxyphenyl)-difluoroacetyl-L-pyrrolidinylmethyl-[N',N'-3-(3-pyridyl)propyl-3-phenylpropylamino]carbamate]
inhibition at 10 µM (Table 2): 98% | Ki (Table 2): 0.113 µM

COc1cc(C(F)(F)C(=O)N2CCC[C@H]2COC(=O)N(CCCc2ccc(C(=O)OCc3ccccc3)cc2)CCCc2cccnc2)cc(OC)c1OC [Example 36, N-(3,4,5-Trimethoxyphenyl)-difluoroacetyl-L-pyrrolidinylmethyl-[N',N'-3-(3-pyridyl)propyl-3-(4-benzyloxycarbonylphenyl)propylamino]carbamate]
inhibition at 1 µM [2]: 77%

COc1cc(C(F)(F)C(=O)N2CCCCC2COC(=O)N(CCCc2cccnc2)CCc2ccccc2)cc(OC)c1OC (racemic) [Example 42, N-(3,4,5-Trimethoxyphenyl)-difluoroacetyl-(±)-piperidinylmethyl-[N',N'-3-(3-pyridyl)propyl-2-phenylethylamino]carbamate]
inhibition at 1 µM [1]: 1%
